Measurements published in article PMC10223737, “Validation of Freshly Isolated Rat Renal Cells as a Tool for Preclinical Assessment of Radiolabeled Receptor-Specific Peptide Uptake in the Kidney” (Pharmaceuticals, 2023).
Where a SMILES comes first, the peptide text is derived from it. [ ]: non-standard residue; d: D form. The star is where a group is joined. DOTA = O=C(O)CN1CCN(CC(=O)O)CCN(CC(=O)*)CCN(CC(=O)O)CC1

Tests used:
isolated rat renal cells [1] = assay: Active versus passive cellular accumulation in isolated rat renal cells (37 °C vs low temperature); assay type: in vitro ADME; conditions: n = 4, Figure 6; for contribution of active accumulation to cell uptake: 37 °C (= 100%) vs low incubation temperature (2–4 °C)
Description: An experiment was arranged to test this cellular model's potential for investigating active membrane transport processes in radiopeptide renal accumulation. […] Using the same procedure as for the radiopeptides, we tested and expressed the uptake of the other studied compounds.

rat kidneys = conditions: cited from earlier work; for radiopeptide uptake in rat kidneys in vivo: radioactivity in the kidneys 60 min after i.v. administration, rats
Description: The data on radiopeptide cellular uptake were compared with already available data on radiopeptide renal retention in rats in vivo, which were previously published by our team.

isolated rat renal cells [2] = assay: Radiopeptide uptake in freshly isolated rat renal cells; conditions: 1 mL suspension 2.10^6/mL + 10 µL radiopeptide (1 µg/mL), 30 min, 37 °C, cells washed four times, gamma-counter
Description: Fresh rat renal cells were isolated from the kidney using the two-phase collagenase perfusion method described by Jones et al. [11]. Male Wistar rats weighing 270–330 g were used for the experiments. The rats were housed under standard conditions (tap water, standard diet, and a 12/12 h light–dark cycle). Animals were fasted for 18–24 h prior to experiments.
As a first step, rats were anesthetized (sodium pentobarbital, 50 mg/kg), the abdomen was opened, and the right renal artery and adjacent parts of the aorta were freed. Then, the right renal artery was cannulated via the aorta. Single-pass perfusion was conducted using oxygenated calcium-free Hanks’ buffer (pH 7.4) containing EGTA (0.5 mM) and Hepes (25 mM). The second perfusion phase was performed in a recirculation system with modified Hanks’ buffer containing CaCl2 (4 mM) and collagenase (0.10 % w/v) for 18–22 min. The kidneys were removed and dispersed in cold Krebs–Henseleit buffer with Hepes (25 mM) and bovine serum albumin (2% w/v). The resulting suspension was filtered and washed with Krebs–Henseleit buffer. Following centrifugation (3 min; 80 g; 4 °C), we used the trypan blue exclusion method to determine the number of cells in the suspension. […] As a result, the cell viability at the end of the 30 min incubation interval was >85%.
Standard incubations were conducted for 30 min at 37 °C using 1 mL of cell suspension containing 2.10^6/mL renal cells. The radiopeptide uptake was determined by mixing 1 mL of cell suspension and 10 µL of the radiopeptide (1 µg/mL). After incubation, the cells were washed four times and separated. The radioactivity of the cell fractions was measured as mentioned below.

LLC-PK1 cells = assay: Cellular uptake in LLC-PK1 cells; assay type: in vitro ADME, porcine; conditions: incubation time 30 min; Figure 5
Description: The cellular accumulation of two somatostatin receptor-specific analogs ([^111In]In -DOTA-TATE and [^111In]In -DOTA-NOC) was compared in two renal cellular models, OK cells and LLC-PK1 cells.

Row | Compound | contribution of active accumulation to cell uptake (isolated rat renal cells [1]) | radiopeptide uptake in rat kidneys in vivo (rat kidneys) | radiopeptide uptake in isolated rat cells (In Vitro) (isolated rat renal cells [2]) [%D/10^6 cells] | cellular accumulation in LLC-PK1 cells compared with OK cells (LLC-PK1 cells) | further results
1 | CSCC[C@H](NC(=O)[C@H](Cc1c[nH]c2ccccc12)NC(=O)CNC(=O)[C@H](Cc1ccc(O)cc1)NC(=O)[C@H](C)NC(=O)[C@@H](CCC(=O)O)NC(=O)CN1CCN(CC(=O)O)CCN(CC(=O)O)CCN(CC(=O)O)CC1)C(=O)N[C@@H](CC(=O)O)C(=O)N[C@@H](Cc1ccccc1)C(N)=O [[^111In]In-DOTA-MG11, metal not drawn] ({DOTA}-[dE]AYGWMDF-NH2) |  | 0.84 ± 0.35 [21] %D/g | 0.16 ± 0.15 |  | 
2 | DTPA-DGlu-Glu-Glu-Glu-Glu-Glu-Ala-Tyr-Gly-Trp-Met-Asp-Phe-NH2 [[^111In]In-DTPA-MG0] |  |  |  |  | retention in the rat kidney in vivo (in words) (rat kidneys; rat, in vivo, iv): relatively high
3 | [DOTA^0, D-Phe^1, 1-Nal^3]-octreotide (disulfide) [[^111In]In-DOTA-NOC] |  | 2.84 ± 0.28 [19] %D/g | 0.75 ± 0.09 | significantly higher | 
4 | [DOTA^0, Tyr^3, Thr^8]-octreotide [[^111In]In-DOTA-TATE] |  | 3.08 ± 0.42 [19] %D/g | 0.36 ± 0.10 | relatively similar in both cell lines | 

More lines, main results first:

Row | contribution of active accumulation to cell uptake (isolated rat renal cells [1]) | Compound | radiopeptide uptake in rat kidneys in vivo (rat kidneys) | radiopeptide uptake in isolated rat cells (In Vitro) (isolated rat renal cells [2]) [%D/10^6 cells] | cellular accumulation in LLC-PK1 cells compared with OK cells (LLC-PK1 cells) | further results
5 | lowest contribution | O=C(O)C(S)C(S)C(=O)O (stereo not drawn) [[^99mTc]Tc-DMSA, dimercaptosuccinate, metal not drawn] |  |  |  | 
6 | highest contribution | mercaptoacetylglycylglycylglycine [[^99mTc]Tc-MAG3] |  |  |  | accumulation at the low incubation temperature (isolated rat renal cells [1]; 2–4 °C, active processes blocked): negligible accumulation
